Assay results from PMC12677607, “Identification of a Pair of Linear or Cyclic Naturally Inspired Bifunctional Lipopeptide Antibiotics That Overcome Antimicrobial Resistance” (Advanced Science, 2025).
Converted amounts (≈) assume the structure as drawn. Blank lines part the entries; values can stand above or below the molecule they belong to. Numbered stars: 1 amine (or outer) side, 2 acyl side, 3 side chain; on linkers, the order of the positions; unused ones are H or OH. Bridge positions count the residues as written; N and C are the ends. Square brackets hold non-standard residues; d marks the D form. Peptide text beside a SMILES is read from it. * marks the point of attachment. Octanoyl(3R-OH) = CCCCC[C@@H](O)CC(=O)*; X3 = CCCCC[C@H](CC(=O)[*:1])O[*:2]; Myristoyl = CCCCCCCCCCCCCC(=O)*; Orn = NCCC[C@H](N)C(=O)O; Dab = NCC[C@H](N)C(=O)O; Dap = NC[C@H](N)C(=O)O

Experiments:
[1] = tested on: Streptococcus pyogenes ATCC 19615; experiment: microbe, parasite or virus in culture; assay type: cell-based; details: for MIC (μg/mL) S. pyogenes ATCC 19615: ATCC 19615, 16 h
Experimental: (§1) All MIC assays were performed two independent times (n = 2) in 96‐well plates using a broth micro‐dilution method. The lowest concentration of that inhibited visible microbial growth was recorded as the MIC value.
(§2) For most of bacterial strains, overnight cultures were diluted 5000‐fold in LB broth. For E. faecium and S. aureus, overnight cultures were diluted 1000‐ and 10000‐fold in LB broth, respectively. 100 µL of diluted cells was mixed with 100 µL of LB broth containing each peptide ranging from 64 to 0.125 µg mL^−1 at 2‐fold serial dilutions.

[2] = tested on: Staphylococcus aureus USA300; experiment: microbe, parasite or virus in culture; assay type: cell-based; details: for MIC (μg/mL) S. aureus USA300: USA300, 16 h
Experimental: as §1, §2

[3] = tested on: Klebsiella pneumoniae CRKP 5452; experiment: microbe, parasite or virus in culture; assay type: cell-based; details: for MIC (μg/mL) K. pneumoniae CRKP 5452: CRKP 5452, 16 h
Experimental: as §1, §2

[4] = tested on: Acinetobacter baumannii 1104008; experiment: microbe, parasite or virus in culture; assay type: cell-based; details: for MIC (μg/mL) A. baumannii 1104008: 1104008, 16 h
Experimental: as §1, §2

[5] = tested on: HeLa cells; experiment: Cytotoxicity assay (CCK-8); assay type: cell-based, human; details: 48 h
Experimental: The cytotoxicity of each synAQU peptide was assessed using a cell counting kit‐8 (CCK‐8) assay. HeLa cells were first seeded in a 96‐well flat‐bottom microtiter plate with a density of ∼5000 cells per well and incubated in the DMEM medium supplemented with 10% FBS at 37 °C with 5% CO2 for 24 h. […] All cytotoxicity experiments were done in triplicate (n = 3) and repeated two independent times (n = 2).

[6] = tested on: Candida albicans ATCC 10231; experiment: MIC assay (YPD broth); assay type: cell-based; details: for MIC (μg/mL) C. albicans ATCC 10231: ATCC 10231, 16 h
Experimental: as §1
(§3) For fungal strains, overnight cultures were diluted 2000‐fold in YPD broth. 100 µL of diluted cells was mixed with 100 µL of YPD broth containing each peptide ranging from […] 64 to 0.125 µg mL^−1 at 2‐fold serial dilutions.

[7] = tested on: Staphylococcus aureus ATCC 25923; experiment: microbe, parasite or virus in culture; assay type: cell-based; details: ATCC 25923, 16 h
Experimental: as §1, §2

[8] = tested on: Acinetobacter baumannii ATCC 17978; experiment: microbe, parasite or virus in culture; assay type: cell-based; details: ATCC 17978, 16 h
Experimental: as §1, §2

[9] = tested on: Streptococcus mutans ATCC 25175; experiment: microbe, parasite or virus in culture; assay type: cell-based; details: ATCC 25175, 16 h
Experimental: as §1, §2

[10] = tested on: Klebsiella pneumoniae ATCC 13883; experiment: microbe, parasite or virus in culture; assay type: cell-based; details: ATCC 13883, 16 h
Experimental: as §1, §2

[11] = tested on: Staphylococcus aureus ATCC 6538; experiment: microbe, parasite or virus in culture; assay type: cell-based; details: ATCC 6538, 16 h
Experimental: as §1, §2

[12] = tested on: Staphylococcus aureus Newman; experiment: microbe, parasite or virus in culture; assay type: cell-based; details: Newman, 16 h
Experimental: as §1, §2

[13] = tested on: Vibrio alginolyticus XSBZ14; experiment: microbe, parasite or virus in culture; assay type: cell-based; details: 16 h
Experimental: as §1, §2

[14] = tested on: Klebsiella pneumoniae CRKP HS11286; experiment: microbe, parasite or virus in culture; assay type: cell-based; details: CRKP HS11286, 16 h
Experimental: as §1, §2

[15] = tested on: Pseudomonas aeruginosa PAO1; experiment: microbe, parasite or virus in culture; assay type: cell-based; details: PAO1, 16 h
Experimental: as §1, §2

[16] = tested on: Salmonella typhimurium LXX; experiment: microbe, parasite or virus in culture; assay type: cell-based; details: murium LXX, 16 h
Experimental: as §1, §2

[17] = tested on: Salmonella enterica ATCC 14028; experiment: microbe, parasite or virus in culture; assay type: cell-based; details: ATCC 14028, 16 h
Experimental: as §1, §2

[18] = tested on: Enterococcus faecalis ATCC 29212; experiment: microbe, parasite or virus in culture; assay type: cell-based; details: ATCC 29212, 16 h
Experimental: as §1, §2

[19] = tested on: Klebsiella pneumoniae NCTC 5056; experiment: microbe, parasite or virus in culture; assay type: cell-based; details: NCTC 5056, 16 h
Experimental: as §1, §2

[20] = tested on: Acinetobacter baumannii P53; experiment: microbe, parasite or virus in culture; assay type: cell-based; details: Table S11; LB broth, 37 °C, 16 h, n = 2
Experimental: as §1, §2

[21] = tested on: Enterococcus faecalis 26; experiment: microbe, parasite or virus in culture; assay type: cell-based; details: 26, 16 h
Experimental: as §1, §2

[22] = tested on: Enterococcus faecium 35682; experiment: microbe, parasite or virus in culture; assay type: cell-based; details: Table S11; LB broth, 37 °C, 16 h, n = 2
Experimental: as §1, §2

[23] = tested on: Pseudomonas aeruginosa ATCC 9027; experiment: microbe, parasite or virus in culture; assay type: cell-based; details: ATCC 9027, 16 h
Experimental: as §1, §2

[24] = tested on: Enterococcus faecalis 28; experiment: microbe, parasite or virus in culture; assay type: cell-based; details: 28, 16 h
Experimental: as §1, §2

[25] = tested on: Acinetobacter baumannii ATCC 19606; experiment: microbe, parasite or virus in culture; assay type: cell-based; details: ATCC 19606, 16 h
Experimental: as §1, §2

[26] = tested on: Shigella Castellani LXX; experiment: MIC assay (broth micro-dilution); assay type: cell-based; details: Table S11; LB broth, 37 °C, 16 h, n = 2
Experimental: as §1, §2

[27] = tested on: Candida albicans ATCC 64550; assay type: cell-based; details: ATCC 64550, 16 h
Experimental: as §1, §3

[28] = Table S11, LB broth, 37 °C, 16 h, n = 2

MIC (μg/mL) S. pyogenes ATCC 19615 [1]: > 64 µg/mL | MIC (μg/mL) S. aureus USA300 [2]: > 64 µg/mL | MIC (μg/mL) K. pneumoniae CRKP 5452 [3]: > 64 µg/mL | MIC (μg/mL) A. baumannii 1104008 [4]: > 64 µg/mL | MIC (μg/mL) C. albicans ATCC 10231 [6]: > 64 µg/mL
Structure (SMILES): CCCCCCCCCCCCCC(=O)N[C@@H](Cc1ccccc1)C(=O)N[C@H]1CCCNC(=O)CNC(=O)[C@H](CCN)NC(=O)[C@@H](Cc2ccc(O)cc2)NC(=O)[C@H](CC(C)C)NC(=O)[C@H]([C@@H](C)CC)NC(=O)[C@@H](C(C)C)NC(=O)[C@H](CCCN)NC1=O [synAQU2-C2] (Myristoyl-F[Orn][Orn][dV]IL[dY][Dab]G; lactam 2-C (inferred))
MIC (μg/mL) Hela [5]: > 64 µg/mL

MIC (μg/mL) S. pyogenes ATCC 19615 [1]: > 64 µg/mL | MIC (μg/mL) S. aureus USA300 [2]: > 64 µg/mL | MIC (μg/mL) K. pneumoniae CRKP 5452 [3]: > 64 µg/mL | MIC (μg/mL) A. baumannii 1104008 [4]: > 64 µg/mL | MIC (μg/mL) C. albicans ATCC 10231 [6]: > 64 µg/mL
Structure (SMILES): CCCCC[C@@H](O)CC(=O)N[C@@H](CN)C(=O)N[C@@H](Cc1ccccc1)C(=O)N[C@@H](CCN)C(=O)N[C@@H]1C(=O)N[C@H](Cc2ccccc2)C(=O)N[C@@H](CN)C(=O)N[C@H](CC(C)C)C(=O)N[C@@H](C(C)C)C(=O)N[C@@H](CC(=O)O)C(=O)O[C@@H]1C [synAQU3-C4] ({Octanoyl(3R-OH)}-[Dap]F[Dab]T[dF][Dap][dL]VD; ester 4-C (inferred))
MIC (μg/mL) Hela [5]: > 64 µg/mL

MIC (μg/mL) S. pyogenes ATCC 19615 [1]: > 64 µg/mL | MIC (μg/mL) S. aureus USA300 [2]: > 64 µg/mL | MIC (μg/mL) K. pneumoniae CRKP 5452 [3]: > 64 µg/mL | MIC (μg/mL) A. baumannii 1104008 [4]: > 64 µg/mL | MIC (μg/mL) C. albicans ATCC 10231 [6]: > 64 µg/mL
Structure (SMILES): CCCCC[C@@H](O)CC(=O)N[C@H]1CNC(=O)[C@H](CC(=O)O)NC(=O)[C@H](C(C)C)NC(=O)[C@@H](CC(C)C)NC(=O)[C@H](CN)NC(=O)[C@@H](Cc2ccccc2)NC(=O)[C@H]([C@@H](C)O)NC(=O)[C@H](CCN)NC(=O)[C@H](Cc2ccccc2)NC1=O [synAQU3-C1] ({Octanoyl(3R-OH)}-[Dap]F[Dab]T[dF][Dap][dL]VD; lactam 1-C (inferred))
MIC (μg/mL) Hela [5]: > 64 µg/mL

Structure (SMILES): CCCCC[C@@H]1CC(=O)N[C@@H](CN)C(=O)N[C@@H](Cc2ccccc2)C(=O)N[C@@H](CCN)C(=O)N[C@@H]([C@@H](C)O)C(=O)N[C@H](Cc2ccccc2)C(=O)N[C@@H](CN)C(=O)N[C@H](CC(C)C)C(=O)N[C@@H](C(C)C)C(=O)N[C@@H](CC(=O)O)C(=O)O1 [synAQU3-cFA] ([Dap]F[Dab]T[dF][Dap][dL]VD; linker N-C via X3)
MIC Staphylococcus aureus ATCC 25923 [7]: > 64 µg/mL | MIC Streptococcus pyogenes ATCC 19615 [1, 28]: 8 µg/mL (≈ 7.03 µM) | MIC Acinetobacter baumannii ATCC 17978 [8]: 64 µg/mL (≈ 56.3 µM) | MIC Streptococcus mutans ATCC 25175 [9]: 32 µg/mL (≈ 28.1 µM) | MIC Staphylococcus aureus USA300 [2, 28]: > 64 µg/mL | MIC Klebsiella pneumoniae ATCC 13883 [10]: > 64 µg/mL | MIC Klebsiella pneumoniae CRKP 5452 [3, 28]: > 64 µg/mL | MIC Staphylococcus aureus ATCC 6538 [11]: > 64 µg/mL | MIC Staphylococcus aureus Newman [12]: > 64 µg/mL | MIC Vibrio alginolyticus XSBZ14 [13]: > 64 µg/mL | MIC Klebsiella pneumoniae CRKP HS11286 [14]: > 64 µg/mL | MIC Pseudomonas aeruginosa PAO1 [15]: 64 µg/mL (≈ 56.3 µM) | MIC Acinetobacter baumannii 1104008 [4, 28]: > 64 µg/mL | MIC Salmonella typhimurium LXX [16]: 64 µg/mL (≈ 56.3 µM) | MIC Salmonella enterica ATCC 14028 [17]: > 64 µg/mL | MIC Enterococcus faecalis ATCC 29212 [18]: > 64 µg/mL | MIC Klebsiella pneumoniae NCTC 5056 [19]: > 64 µg/mL | MIC Acinetobacter baumannii P53 [20]: > 64 µg/mL | MIC Enterococcus faecalis 26 [21]: 16 µg/mL (≈ 14.1 µM) | MIC Enterococcus faecium 35682 [22]: 32 µg/mL (≈ 28.1 µM) | MIC Pseudomonas aeruginosa ATCC 9027 [23]: 32 µg/mL (≈ 28.1 µM) | MIC Enterococcus faecalis 28 [24]: > 64 µg/mL | MIC Acinetobacter baumannii ATCC 19606 [25]: > 64 µg/mL | MIC Candida albicans ATCC 10231 ([6]; Table S11, YPD broth, 30 °C, 16 h, n = 2): 32 µg/mL (≈ 28.1 µM) | MIC Shigella Castellani LXX [26]: 64 µg/mL (≈ 56.3 µM) | MIC Candida albicans ATCC 64550 [27]: 32 µg/mL (≈ 28.1 µM)
